Consider 6 compounds from ChEMBL document CHEMBL5532723, “Advances in Targeted Therapies for Inflammatory Diseases and Cancer: Exploring Cellular Mechanisms and Therapeutic Strategies” (ACS Med Chem Lett, 2024).

Test [1] addresses T1, Protein cereblon/Interleukin-1 receptor-associated kinase 4 (Homo sapiens, UniProt Q9NWZ3+Q96SW2). The test can be described thus: PROTAC activity at CRBN/IRAK4 in human KARPAS-299 cells assessed as induction of IRAK4 degradation incubated for 24 hrs by TR-FRET assay. The test is classed as cell-based. In general terms: In TR-FRET formats the signal depends on donor and acceptor labels being close together.
Target sequence in this assay (Q9NWZ3 whole entry): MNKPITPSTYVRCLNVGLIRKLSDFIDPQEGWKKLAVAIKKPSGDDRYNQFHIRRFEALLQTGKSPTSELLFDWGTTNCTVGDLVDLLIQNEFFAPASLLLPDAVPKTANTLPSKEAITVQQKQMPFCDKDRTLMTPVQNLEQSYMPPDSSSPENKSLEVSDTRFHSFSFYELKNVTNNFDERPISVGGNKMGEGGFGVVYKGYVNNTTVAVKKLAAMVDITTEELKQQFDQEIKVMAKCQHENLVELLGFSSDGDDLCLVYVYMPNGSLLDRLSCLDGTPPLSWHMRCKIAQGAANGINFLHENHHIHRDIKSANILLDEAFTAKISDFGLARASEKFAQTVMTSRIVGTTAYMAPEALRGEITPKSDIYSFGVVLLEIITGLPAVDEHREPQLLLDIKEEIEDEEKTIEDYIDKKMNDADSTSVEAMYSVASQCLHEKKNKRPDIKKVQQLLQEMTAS
Target sequence in this assay (Q96SW2 whole entry): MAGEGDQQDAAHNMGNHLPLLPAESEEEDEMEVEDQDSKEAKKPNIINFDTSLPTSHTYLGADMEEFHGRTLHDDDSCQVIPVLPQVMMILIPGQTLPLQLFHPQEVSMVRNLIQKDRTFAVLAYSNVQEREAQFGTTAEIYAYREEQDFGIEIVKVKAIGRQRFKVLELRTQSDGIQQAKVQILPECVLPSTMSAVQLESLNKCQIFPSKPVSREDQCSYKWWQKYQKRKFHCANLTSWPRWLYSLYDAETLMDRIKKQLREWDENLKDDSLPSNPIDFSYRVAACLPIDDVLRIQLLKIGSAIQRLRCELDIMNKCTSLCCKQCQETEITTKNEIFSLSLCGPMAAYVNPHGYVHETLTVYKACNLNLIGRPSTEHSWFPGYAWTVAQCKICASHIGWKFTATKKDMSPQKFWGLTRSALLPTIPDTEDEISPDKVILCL

Test [2] addresses T1, Protein cereblon/Interleukin-1 receptor-associated kinase 4. The test can be described thus: PROTAC activity at CRBN/IRAK4 in human KARPAS-299 cells assessed as induction of IRAK4 degradation incubated for 24 hrs by TR-FRET assay relative to control. The test is classed as cell-based.
Target sequence in this assay (Q96SW2 whole entry, looked up): as the sequence (Q96SW2 whole entry) above
Target sequence in this assay (Q9NWZ3 whole entry, looked up): as the sequence (Q9NWZ3 whole entry) above

By DC50 is commonly meant the concentration at which degradation of the target reaches its halfway point. Broadly, the Emax is the maximal effect, on the per cent scale that the assay sets. Turning to `CC(C)(O)c1cc2nn([C@H]3CC[C@H](N4CCN(C5CN(c6cc(F)c([C@H]7CCC(=O)NC7=O)c(F)c6)C5)CC4)CC3)cc2cc1NC(=O)c1ccc2cc(C#N)cnn12`, in test [1], the 50% degradation concentration (DC50) was 8.3 nM. Further, the Emax in test [2] was found to be 100%.
Consider `CC(C)(O)c1cc2nn([C@H]3CC[C@H](N4CCN(CCc5cc(F)c([C@H]6CCC(=O)NC6=O)c(F)c5)CC4)CC3)cc2cc1NC(=O)c1ccc2cc(C#N)cnn12`, for which the DC50 in test [1] is 3.7 nM. Also, the Emax in test [2] worked out at 99%.
The like results for `CC(C)(O)c1cc2nn([C@H]3C[C@H](N4CCN(C(=O)C5CN(c6cc(F)c([C@H]7CCC(=O)NC7=O)c(F)c6)C5)CC4)C3)cc2cc1NC(=O)c1ccc2cc(C#N)cnn12` were, in that order, 11 nM and 99%.
In the case of `CC(C)(O)c1cc2nn(C34CCC(N5CCN(CCc6cc(F)c([C@H]7CCC(=O)NC7=O)c(F)c6)CC5)(CC3)CC4)cc2cc1NC(=O)c1ccc2cc(C#N)cnn12`, in test [1], the DC50 was 3.9 nM. Moreover, the Emax in test [2] turned out to be 101%.
The like results for `CC(C)(O)c1cc2nn(C34CC(N5CCN(CCc6cc(F)c([C@H]7CCC(=O)NC7=O)c(F)c6)CC5)(C3)C4)cc2cc1NC(=O)c1ccc2cc(C#N)cnn12` were, in that order, 5.2 nM and 94%.
Take `CC(C)(O)c1cc2nn([C@H]3CC[C@H](N4CCN(CCNc5cc(F)c(C6CCC(=O)NC6=O)c(F)c5)CC4)CC3)cc2cc1NC(=O)c1ccc2cc(C#N)cnn12` (some centres not stated): the DC50 in test [1] turned out to be 7.1 nM. In addition, the Emax in test [2] was found to be 100%.
